Assay results taken from patent US5405849A, “Angiotensin II receptor blocking 2,3,6 substituted quinazolinones” (American Cyanamid Company, priority 1993, dated 1995).

Test system: angiotensin II (AII) vasopressor response
Test: AII challenge: antagonism of the vasopressor response of angiotensin II in conscious Okamoto-Aoki SHR
Format: in vivo, rat (Okamoto-Aoki SHR)
Conditions: for inhibition in vivo at 5 mg/kg / inhibition in vivo at 1 mg/kg / inhibition in vivo at 10 mg/kg / inhibition in vivo at 2 mg/kg / inhibition in vivo at 3 mg/kg / inhibition in vivo at 6 mg/kg / inhibition in vivo at 30 mg/kg: Rattus norvegicus; for inhibition in vivo at 5 mg/kg: po; for inhibition in vivo at 1 mg/kg / inhibition in vivo at 10 mg/kg / inhibition in vivo at 2 mg/kg / inhibition in vivo at 3 mg/kg / inhibition in vivo at 6 mg/kg / inhibition in vivo at 30 mg/kg: iv; for inhibition in vivo at 3 mg/kg: 3 mg/kg iv
Text: Conscious Male Okamoto-Aoki SHR, 16-20 weeks old, weighing approximately 330 g are purchased from Charles River Labs (Wilmington, Mass.). Conscious rats are restrained in a supine position with elastic tape. The area at the base of the tail is locally anesthetized by subcutaneous infiltration with 2% procaine. The ventral caudal artery and vein are isolated, and a cannula made of polyethylene (PE) 10-20 tubing (fused together by heat) is passed into the lower abdominal aorta and vena cava, respectively. The cannula is secured, heparinized (1,000 I.U./ml), sealed and the wound is closed. The animals are placed in plastic restraining cages in an upright position. The cannula is attached to a Statham P23Db pressure transducer, and pulsatile blood pressure is recorded to 10-15 minutes with a Gould Brush recorder.
Angiotensin II (human sequence, Sigma Chem. Co., St. Louis, Mo.) of 0.05 and 0.1 ug/kg i.v. is injected into all rats (predosing response). Then a test compound, vehicle or a known angiotensin II antagonist is administered i.v., i.p. or orally to each set of rats. […] The vasopressor response of angiotensin II is measured for the increase in systolic blood pressure in mmHg. The percentage of antagonism or blockade of the vasopressor response of angiotensin II by a compound is calculated using the vasopressor response (increase in systolic blood pressure) of angiotensin II of each rat predosing the compound as 100%.

[1] = 1 mg/kg iv, AII .1 ug/kg, 30 min
[2] = 2 mg/kg iv, AII .05 ug/kg, 180 min
[3] = 0.5 h, 1 mg/kg iv, AII .05 ug/kg, 30 min
[4] = 0.5 h, 1 mg/kg iv, AII .1 ug/kg, 30 min
[5] = 0.75 h, 1 mg/kg iv, AII .05 ug/kg, 45 min
[6] = 0.75 h, 1 mg/kg iv, AII .1 ug/kg, 45 min
[7] = 1.5 h, 1 mg/kg iv, AII .05 ug/kg, 90 min
[8] = 1.5 h, 1 mg/kg iv, AII .1 ug/kg, 90 min
[9] = 1.5 h, 10 mg/kg iv, AII .05 ug/kg, 90 min
[10] = 2 h, 2 mg/kg iv, AII .05 ug/kg, 120 min
[11] = 2 h, 2 mg/kg iv, AII .1 ug/kg, 120 min
[12] = 2.5 h, 2 mg/kg iv, AII .05 ug/kg, 150 min
[13] = 2.5 h, 2 mg/kg iv, AII .1 ug/kg, 150 min
[14] = 3 h, 2 mg/kg iv, AII .05 ug/kg, 180 min
[15] = 3 h, 2 mg/kg iv, AII .1 ug/kg, 180 min
[16] = 0.5 h, 30 mg/kg iv, AII .05 ug/kg, 30 min
[17] = 0.5 h, 30 mg/kg iv, AII .1 ug/kg, 30 min
[18] = 1.5 h, 30 mg/kg iv, AII .05 ug/kg, 90 min
[19] = 1.5 h, 30 mg/kg iv, AII .1 ug/kg, 90 min
[20] = 2.5 h, 30 mg/kg iv, AII .05 ug/kg, 150 min
[21] = 2.5 h, 30 mg/kg iv, AII .1 ug/kg, 150 min

SMILES: CCCCc1nc2ccc(C(C)(C)O)cc2c(=O)n1Cc1ccc(-c2ccccc2-c2nnn[nH]2)cc1 [Example 51, 2-butyl-6-(1-hydroxy-1-methylethyl)-3-[[2'-(1H-tetrazol-5-yl)-[1,1'-biphenyl]-4-yl]methyl]-4(3H)-quinazolinone]
- inhibition in vivo at 5 mg/kg (0.5 h, 5 mg/kg oral, AII .05 ug/kg, 30 min): 30%
- inhibition in vivo at 5 mg/kg (0.5 h, 5 mg/kg oral, AII .1 ug/kg, 30 min): 26%
- inhibition in vivo at 5 mg/kg (1.5 h, 5 mg/kg oral, AII .05 ug/kg, 90 min): 75%
- inhibition in vivo at 5 mg/kg (1.5 h, 5 mg/kg oral, AII .1 ug/kg, 90 min): 55%
- inhibition in vivo at 5 mg/kg (2.5 h, 5 mg/kg oral, AII .05 ug/kg, 150 min): 63%
- inhibition in vivo at 5 mg/kg (2.5 h, 5 mg/kg oral, AII .1 ug/kg, 150 min): 46%

SMILES: CCCCc1nc2ccc(C(C)O)cc2c(=O)n1Cc1ccc(-c2ccccc2-c2nnn[nH]2)cc1 (stereo not shown) [Example 49, 2-Butyl-6-(1-hydroxyethyl)-3-[[2'-(1H-tetrazol-5-yl)-[1,1'-biphenyl]-4-yl]methyl]-4(3H)-quinazolinone]
- Response change (systolic BP increase to AII) (1 mg/kg iv, AII .05 ug/kg, 30 min): 27 mmHg
- Response change (systolic BP increase to AII) (1 mg/kg iv, AII .05 ug/kg, 45 min): 25 mmHg
- Response change (systolic BP increase to AII) (1 mg/kg iv, AII .05 ug/kg, 90 min): 40 mmHg
- Response change (systolic BP increase to AII) [1]: 40 mmHg
- Response change (systolic BP increase to AII) (1 mg/kg iv, AII .1 ug/kg, 45 min): 25 mmHg
- Response change (systolic BP increase to AII) (1 mg/kg iv, AII .1 ug/kg, 90 min): 40 mmHg
- Response change (systolic BP increase to AII) (2 mg/kg iv, AII .05 ug/kg, 120 min): 10 mmHg
- Response change (systolic BP increase to AII) (2 mg/kg iv, AII .05 ug/kg, 150 min): 35 mmHg
- Response change (systolic BP increase to AII) [2]: 50 mmHg
- Response change (systolic BP increase to AII) (2 mg/kg iv, AII .1 ug/kg, 120 min): 35 mmHg
- Response change (systolic BP increase to AII) (2 mg/kg iv, AII .1 ug/kg, 150 min): 40 mmHg
- Response change (systolic BP increase to AII) (2 mg/kg iv, AII .1 ug/kg, 180 min): 55 mmHg
- Response change (systolic BP increase to AII) (10 mg/kg iv, AII .05 ug/kg, 30 min): 0 mmHg
- Response change (systolic BP increase to AII) (10 mg/kg iv, AII .05 ug/kg, 90 min): 0 mmHg
- Response change (systolic BP increase to AII) (10 mg/kg iv, AII .1 ug/kg, 30 min): 0 mmHg
- inhibition in vivo at 1 mg/kg [3]: 40%
- inhibition in vivo at 1 mg/kg [4]: 27%
- inhibition in vivo at 10 mg/kg (0.5 h, 10 mg/kg iv, AII .05 ug/kg, 30 min): 100%
- inhibition in vivo at 10 mg/kg (0.5 h, 10 mg/kg iv, AII .1 ug/kg, 30 min): 100%
- inhibition in vivo at 1 mg/kg [5]: 45%
- inhibition in vivo at 1 mg/kg [6]: 55%
- inhibition in vivo at 1 mg/kg [7]: 11%
- inhibition in vivo at 1 mg/kg [8]: 27%
- inhibition in vivo at 10 mg/kg [9]: 100%
- inhibition in vivo at 2 mg/kg [10]: 78%
- inhibition in vivo at 2 mg/kg [11]: 36%
- inhibition in vivo at 2 mg/kg [12]: 23%
- inhibition in vivo at 2 mg/kg [13]: 27%
- inhibition in vivo at 2 mg/kg [14]: 11%
- inhibition in vivo at 2 mg/kg [15]: 0%

SMILES: CCCCc1nc2ccc(CO)cc2c(=O)n1Cc1ccc(-c2ccccc2-c2nnn[nH]2)cc1 [Example 53]
- Response change (systolic BP increase to AII) (6 mg/kg iv, AII .025 ug/kg, 30 min): 15 mmHg
- Response change (systolic BP increase to AII) (6 mg/kg iv, AII .025 ug/kg, 90 min): 10 mmHg
- inhibition in vivo at 3 mg/kg (10 min, AII .05 ug/kg): 62%
- inhibition in vivo at 3 mg/kg (10 min, AII .1 ug/kg): 42%
- inhibition in vivo at 10 mg/kg (10 min, 10 mg/kg iv, AII .05 ug/kg): 83%
- inhibition in vivo at 10 mg/kg (10 min, 10 mg/kg iv, AII .1 ug/kg): 90%
- inhibition in vivo at 3 mg/kg (0.5 h, AII .025 ug/kg, 30 min): 53%
- inhibition in vivo at 6 mg/kg (0.5 h, 6 mg/kg iv, AII .025 ug/kg, 30 min): 50%
- inhibition in vivo at 10 mg/kg (0.5 h, 10 mg/kg iv, AII .05 ug/kg, 30 min, second 30/60/90 series): 76%
- inhibition in vivo at 10 mg/kg (0.5 h, 10 mg/kg iv, AII .1 ug/kg, 30 min, second 30/60/90 series): 60%
- inhibition in vivo at 3 mg/kg (1 h, AII .05 ug/kg, 60 min): 30%
- inhibition in vivo at 3 mg/kg (1 h, AII .1 ug/kg, 60 min): 13%
- inhibition in vivo at 10 mg/kg (1 h, 10 mg/kg iv, AII .05 ug/kg, 60 min, second 30/60/90 series): 46%
- inhibition in vivo at 10 mg/kg (1 h, 10 mg/kg iv, AII .1 ug/kg, 60 min, second 30/60/90 series): 44%
- inhibition in vivo at 3 mg/kg (1.5 h, AII .025 ug/kg, 90 min): 47%
- inhibition in vivo at 3 mg/kg (1.5 h, AII .1 ug/kg, 90 min): 13%
- inhibition in vivo at 6 mg/kg (1.5 h, 6 mg/kg iv, AII .1 ug/kg, 90 min): 30%
- inhibition in vivo at 10 mg/kg [9]: 41%
- inhibition in vivo at 10 mg/kg (1.5 h, 10 mg/kg iv, AII .05 ug/kg, 90 min, second 30/60/90 series): 35%
- inhibition in vivo at 10 mg/kg (1.5 h, 10 mg/kg iv, AII .1 ug/kg, 90 min): 56%
- inhibition in vivo at 10 mg/kg (1.5 h, 10 mg/kg iv, AII .1 ug/kg, 90 min, second 30/60/90 series): 26%

SMILES: CCCCc1nc2ccc(C(C)OC(C)=O)cc2c(=O)n1Cc1ccc(-c2ccccc2-c2nnn[nH]2)cc1 (stereo not shown) [Example 58, 6-[1-(Acetyloxy)ethyl]-2-butyl-3-[[2'-(1H-tetrazol-5-yl)[1,1'-biphenyl]-4-yl]methyl]-4(3H) -quinazolinone]
- inhibition in vivo at 30 mg/kg [16]: 87%
- inhibition in vivo at 30 mg/kg [17]: 98%
- inhibition in vivo at 30 mg/kg [18]: 85%
- inhibition in vivo at 30 mg/kg [19]: 95%
- inhibition in vivo at 30 mg/kg [20]: 85%
- inhibition in vivo at 30 mg/kg [21]: 81%

SMILES: CCCCc1nc2ccc(C(O)c3ccccc3)cc2c(=O)n1Cc1ccc(-c2ccccc2-c2nnn[nH]2)cc1 (stereo not shown) [Example 54]
- Response change (systolic BP increase to AII) [1]: 35 mmHg
- Response change (systolic BP increase to AII) [2]: 17 mmHg
- Response change (systolic BP increase to AII) (5 mg/kg oral, AII .05 ug/kg, 180 min): 25 mmHg
- Response change (systolic BP increase to AII) (5 mg/kg oral, AII .1 ug/kg, 180 min): 48 mmHg
- inhibition in vivo at 1 mg/kg [3]: 47%
- inhibition in vivo at 1 mg/kg [4]: 30%
- inhibition in vivo at 1 mg/kg [5]: 75%
- inhibition in vivo at 1 mg/kg [6]: 28%
- inhibition in vivo at 1 mg/kg [7]: 49%
- inhibition in vivo at 1 mg/kg [8]: 34%
- inhibition in vivo at 2 mg/kg [10]: 85%
- inhibition in vivo at 2 mg/kg [11]: 64%
- inhibition in vivo at 2 mg/kg [12]: 67%
- inhibition in vivo at 2 mg/kg [13]: 54%
- inhibition in vivo at 2 mg/kg [14]: 69%
- inhibition in vivo at 2 mg/kg [15]: 50%
- inhibition in vivo at 5 mg/kg (3 h, 5 mg/kg oral, AII .05 ug/kg, 180 min): 55%
- inhibition in vivo at 5 mg/kg (3 h, 5 mg/kg oral, AII .1 ug/kg, 180 min): 26%

SMILES: CCCCc1nc2ccccc2c(=O)n1Cc1ccc(-c2ccccc2-c2nnn[nH]2)cc1 [Example 50]
- Response change (systolic BP increase to AII) (30 mg/kg iv, AII .05 ug/kg, 90 min): 30 mmHg
- inhibition in vivo at 30 mg/kg [16]: 82%
- inhibition in vivo at 30 mg/kg [17]: 76%
- inhibition in vivo at 30 mg/kg [18]: 29%
- inhibition in vivo at 30 mg/kg [19]: 52%
- inhibition in vivo at 30 mg/kg [20]: 41%
- inhibition in vivo at 30 mg/kg [21]: 48%
